Measured values taken from ChEMBL document CHEMBL1201862, “PubChem BioAssay data set” (2004).
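Following 48 hours of exposure in 96-well plates, responses at five concentrations were used to interpolate endpoints linearly. The concentration for 50% growth inhibition is given as GI50.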 Activity calls are given as the source filed them. No stated cut-off is given here; in the data, active = GI50 up to about 1.1 µM and inactive = higher.

Legend:
Assay in all cases: inhibition of tumour cell growth, NCI panel, 48 h
A549 = tested on: A549
SW-620 = tested on: SW-620
IGROV-1 = tested on: IGROV-1
NCI-H460 = tested on: NCI-H460
OVCAR-8 = tested on: OVCAR-8
U-251 = tested on: U-251
786-0 = tested on: 786-0
SF-268 = tested on: SF-268
Malme-3M = tested on: Malme-3M
SK-MEL-5 = tested on: SK-MEL-5
UO-31 = tested on: UO-31
SN12C = tested on: SN12C
EKVX = tested on: EKVX
SK-MEL-28 = tested on: SK-MEL-28
KM12 = tested on: KM12
K562 = tested on: K562

Measured: GI50

c1ccc2c(c1)C1=NCCN1c1ccccc1-2
inactive: A549 3.97 µM | SW-620 2.37 µM | IGROV-1 3.44 µM | NCI-H460 1.77 µM | OVCAR-8 2.51 µM | U-251 3.15 µM | 786-0 2.6 µM | SF-268 3.46 µM | Malme-3M 2.64 µM | SK-MEL-5 2.49 µM | UO-31 2.77 µM | SN12C 2.45 µM | EKVX 4.54 µM | SK-MEL-28 3.91 µM | KM12 2.96 µM

COc1ccc(/C=C/COC(C)=O)cc1OC
inactive: A549 > 100 µM | SW-620 > 100 µM | IGROV-1 > 100 µM | OVCAR-8 > 100 µM | U-251 > 100 µM | 786-0 > 100 µM | SF-268 > 100 µM | Malme-3M > 100 µM | SK-MEL-5 > 100 µM | K562 > 100 µM | UO-31 > 100 µM | SN12C > 100 µM | EKVX > 100 µM | SK-MEL-28 > 100 µM | KM12 > 100 µM

O=C1CCCC(O)=C1SC1=C(O)CCCC1=O
inactive: A549 70.3 µM | SW-620 > 100 µM | IGROV-1 > 100 µM | OVCAR-8 > 100 µM | U-251 > 100 µM | 786-0 81.1 µM | SF-268 > 100 µM | Malme-3M > 100 µM | SK-MEL-5 > 100 µM | K562 51.4 µM | UO-31 98.2 µM | SN12C 74 µM | EKVX > 100 µM | SK-MEL-28 69.2 µM | KM12 > 100 µM

N#CC(NNC(=O)c1ccccc1O)c1ccccc1O (centres undefined)
inactive: A549 8.69 µM | SW-620 7.66 µM | IGROV-1 2.6 µM | NCI-H460 4.85 µM | OVCAR-8 3.58 µM | U-251 4.18 µM | 786-0 3.55 µM | SF-268 2.29 µM | Malme-3M 10 µM | SK-MEL-5 8.89 µM | K562 5.43 µM | UO-31 2.91 µM | SN12C 5.27 µM | SK-MEL-28 10.9 µM | KM12 5.82 µM

O=[N+]([O-])c1cccc(-c2oc(/C=N/c3ccccc3)c([N+](=O)[O-])c2-c2cccc([N+](=O)[O-])c2)c1
inactive: A549 > 100 µM | SW-620 > 100 µM | IGROV-1 > 100 µM | NCI-H460 > 100 µM | OVCAR-8 > 100 µM | U-251 > 100 µM | 786-0 > 100 µM | SF-268 > 100 µM | Malme-3M > 100 µM | SK-MEL-5 > 100 µM | K562 > 100 µM | UO-31 > 100 µM | EKVX > 100 µM | SK-MEL-28 > 100 µM | KM12 > 100 µM

Cc1ccc([S+]([O-])c2ccccc2[N+](=O)[O-])cc1 (centres undefined)
inactive: A549 70.1 µM | SW-620 > 100 µM | IGROV-1 65.9 µM | NCI-H460 79.8 µM | OVCAR-8 > 100 µM | U-251 48.8 µM | 786-0 > 100 µM | Malme-3M > 100 µM | SK-MEL-5 70 µM | K562 64.4 µM | UO-31 51.2 µM | SN12C 72.6 µM | SK-MEL-28 42.2 µM | KM12 54.6 µM

Cc1ccc(S(=O)(=O)N/N=C(\c2nc3ccc(Cl)cc3[nH]c2=O)C(O)c2ccco2)cc1 (centres undefined)
inactive: A549 > 100 µM | SW-620 > 100 µM | IGROV-1 > 100 µM | NCI-H460 > 100 µM | 786-0 > 100 µM | SF-268 > 100 µM | Malme-3M > 100 µM | SK-MEL-5 > 100 µM | K562 42.3 µM | EKVX > 100 µM | SK-MEL-28 > 100 µM | KM12 66.8 µM

C#CCn1c(=O)[nH]c(=O)c2cccnc21
inactive: A549 > 100 µM | SW-620 > 100 µM | U-251 > 100 µM | 786-0 > 100 µM | SF-268 > 100 µM | Malme-3M > 100 µM | SK-MEL-5 > 100 µM | SN12C > 100 µM | SK-MEL-28 > 100 µM | KM12 > 100 µM

OC1OC2COC(c3ccccc3)OC2C(O)C1O (centres undefined)
inactive: A549 > 100 µM | SW-620 > 100 µM | IGROV-1 > 100 µM | NCI-H460 > 100 µM | OVCAR-8 > 100 µM | U-251 > 100 µM | 786-0 > 100 µM | SF-268 > 100 µM | Malme-3M > 100 µM | SK-MEL-5 > 100 µM | K562 > 100 µM | UO-31 > 100 µM | SN12C > 100 µM | EKVX > 100 µM | KM12 > 100 µM

O=C(CCC/C(CC(=O)c1ccc(Br)cc1)=N\O)Nc1ccccc1
inactive: A549 > 100 µM | SW-620 > 100 µM | IGROV-1 57.3 µM | NCI-H460 > 100 µM | OVCAR-8 > 100 µM | U-251 > 100 µM | 786-0 > 100 µM | SF-268 > 100 µM | Malme-3M > 100 µM | SK-MEL-5 43.3 µM | UO-31 > 100 µM | SN12C > 100 µM | EKVX > 100 µM | SK-MEL-28 > 100 µM | KM12 > 100 µM

O=C(O)C(CS)Nc1c2ccccc2nc2ccccc12 (centres undefined)
inactive: A549 67.5 µM | SW-620 54.1 µM | IGROV-1 > 100 µM | NCI-H460 36.1 µM | OVCAR-8 48.3 µM | U-251 > 100 µM | 786-0 > 100 µM | SF-268 > 100 µM | Malme-3M 54.3 µM | K562 49.7 µM | UO-31 26 µM | SN12C 51.1 µM | EKVX 42.7 µM | SK-MEL-28 > 100 µM | KM12 59.6 µM

CC#CCC1CCC(OCC)=CC1=O (centres undefined)
inactive: A549 > 100 µM | SW-620 > 100 µM | IGROV-1 > 100 µM | NCI-H460 > 100 µM | OVCAR-8 > 100 µM | U-251 > 100 µM | 786-0 > 100 µM | SF-268 > 100 µM | SK-MEL-5 > 100 µM | K562 > 100 µM | UO-31 > 100 µM | SN12C > 100 µM | EKVX > 100 µM | SK-MEL-28 > 100 µM | KM12 > 100 µM

COc1ccc(Br)c(C(=O)N2CCc3ccccc32)c1N
inactive: A549 59.6 µM | SW-620 49.1 µM | IGROV-1 70.5 µM | NCI-H460 36 µM | OVCAR-8 32.3 µM | U-251 33.9 µM | 786-0 42.4 µM | Malme-3M 66.4 µM | SK-MEL-5 40.2 µM | K562 30.2 µM | UO-31 33.8 µM | SN12C 41.8 µM | SK-MEL-28 52.7 µM | KM12 34.2 µM

Cc1cn(C2CC(O)C(COC(=O)c3ccccc3)O2)c(=O)[nH]c1=O (centres undefined)
inactive: A549 > 100 µM | SW-620 > 100 µM | IGROV-1 > 100 µM | NCI-H460 > 100 µM | OVCAR-8 > 100 µM | U-251 > 100 µM | 786-0 > 100 µM | SF-268 > 10 µM | Malme-3M > 100 µM | SK-MEL-5 > 100 µM | K562 > 100 µM | SN12C > 100 µM | SK-MEL-28 > 100 µM | KM12 > 100 µM
